Measurements from patent US4011390A, “Semi-synthetic aminocyclitol aminoglycoside antibiotics and methods for the preparation thereof” (Schering-Plough Corporation, priority 1974, dated 1977).
Values after ≈ are worked out from the molar mass of the structure shown. Read-outs that look alike come from different tables or passages of the source.

Assays:
Acute Toxicity = conditions: mouse, in vivo
Streptococcus pyogenes [1] = assay: Disc test, Bauer-Kirby technique with 10 Mcg. discs; format: cell-based; conditions: Streptococcus pyogenes
Text: (§1) Disc Test Results (Replicate Tests) With The Mutamicins, Sisomicin and
(§2) Bauer-Kirby Technique^1 With 10 Mcg. Discs
(§3) ^1 Bauer, Kirby, Sherris and Turck, American Journal of Clinical

Bacillus subtilis [2] = assay: as above; format: cell-based; conditions: Bacillus subtilis, ATCC6633, strain ATCC 6633
Text: as §1, §2, §3

Klebsiella pneumoniae [3] = assay: as above; format: cell-based; conditions: Klebsiella pneumoniae
Text: as §1, §2, §3

Providence 164 = assay: as above; format: cell-based; conditions: strain 164
Text: as §1, §2, §3

Staphylococcus aureus [4] = assay: as above; format: cell-based; conditions: Staphylococcus aureus
Text: as §1, §2, §3

Escherichia coli [5] = assay: as above; format: cell-based; conditions: Escherichia coli, read-out: Zone Size
Text: as §1, §2, §3

Pseudomonas aeruginosa [6] = assay: as above; format: cell-based; conditions: Pseudomonas aeruginosa
Text: as §1, §2, §3

E. coli = assay: Activity against resistant strains; format: cell-based; conditions: E. coli W677/R55 and LA290/R55
Text: (§4) In many instances, bacterial resistance is related to the organism's ability to inactivate the antibacterial agent via enzymatic (biochemical) means. Some species inactivate aminoglycosides antibiotics by acetylating the antibacterial agent, others by phosphorylation and still others by adenylylating. Some strains have several different inactivating capabilities. Further, the inactivation reactions occur at a specific site or sites on the antibacterial agent. We have shown by the compounds of this invention that alteration of sites on the antibiotic molecule not directly involved in inactivation processes can nevertheless frustrate these inactivation processes. […] The tables illustrate that the mutamicins include compounds which are active against strains having different mechanisms of inactivation of gentamicin, sisomicin, kanamycin, neomycin and torbramycin. For example, some mutamicins are effective against strains of E. coli which contain adenylylating R factors such as E. coli W677/R55 and LA290/R55. These E. coli strains are resistant to gentamicin, sisomicin and torbramycin. Some are also effective against gentamicin, tobramycin and kanamycin resistant adenylylating strains of Klebsiella pneumoniae and also kanamycin, neomycin phosphorylating strains of E. coli and Klebsiella pneumoniae. Further, some mutamicins are effective against gentamicin and sisomicin resistant strains of Pseudomonas aeruginosa and gentamicin, sisomicin, tobramycin resistant Providence which is sensitive to kanamycin. Thus, the mutamicins afford a means for combatting strains of bacteria which have already developed a variety of mechanisms for resisting the action of many of the antibiotics known in the art or currently in commercial use.

Providence [7] = assay: Activity against resistant strains; format: cell-based; conditions: gentamicin, sisomicin, tobramycin resistant Providence
Text: as §4

Pseudomonas aeruginosa [8] = assay: Activity against resistant strains; format: cell-based; conditions: gentamicin and sisomicin resistant strains
Text: as §4

Salmonella typhimurium = assay: MIC in Mueller-Hinton Broth pH 7.2; format: cell-based; conditions: Salmonella enterica, strain B
Text: (§5) In vitro Activity of the Mutamicins and Sisomicin
(§6) MIC's in Mueller-Hinton Broth pH 7.2

Proteus rettgeri = assay: MIC in Mueller-Hinton Broth pH 7.2; format: cell-based; conditions: Providencia rettgeri, pH 7.2
Text: as §5, §6

Candida albicans = assay: MIC in Mueller-Hinton Broth pH 7.2; format: cell-based; conditions: pH 7.2
Text: as §5, §6

Streptococcus pyogenes [9] = assay: MIC in Mueller-Hinton Broth pH 7.2; format: cell-based
Text: as §5, §6

Bacillus subtilis [10] = assay: MIC in Mueller-Hinton Broth pH 7.2; format: cell-based; conditions: ATCC6633, strain ATCC 6633
Text: as §5, §6

Trichophyton rubrum = assay: MIC in Mueller-Hinton Broth pH 7.2; format: cell-based; conditions: pH 7.2
Text: as §5, §6

Serratia = assay: MIC in Mueller-Hinton Broth pH 7.2; format: cell-based; conditions: pH 7.2
Text: as §5, §6

Klebsiella pneumoniae [11] = assay: MIC in Mueller-Hinton Broth pH 7.2; format: cell-based
Text: as §5, §6

Aspergillus niger = assay: MIC in Mueller-Hinton Broth pH 7.2; format: cell-based; conditions: pH 7.2
Text: as §5, §6

Staphylococcus aureus [12] = assay: MIC in Mueller-Hinton Broth pH 7.2; format: cell-based
Text: as §5, §6

Providence [13] = assay: MIC in Mueller-Hinton Broth pH 7.2; format: cell-based; conditions: strain (Genta. R.) 164
Text: as §5, §6

Escherichia coli [14] = assay: MIC in Mueller-Hinton Broth pH 7.2; format: cell-based
Text: as §5, §6

Pseudomonas aeruginosa [15] = assay: MIC in Mueller-Hinton Broth pH 7.2; format: cell-based
Text: as §5, §6

CN[C@@H]1[C@@H](O)[C@@H](O[C@@H]2[C@@H](O)[C@H](O[C@H]3OC(CN)=CC[C@H]3N)[C@@H](N)C[C@H]2N)OC[C@]1(C)O [Sisomicin, O-2,6-Diamino-2,3,4,6-tetradeoxy-α-D-glycero-hex-4-eno-pryanosyl(1→4)-O-[3-deoxy-4-C-methyl-3-(methylamino)-B-L-arabinopyranosyl(1→6)] -2-deoxy-D-streptamine, reference compound]
LD50 (Acute Toxicity; ip): 190 mg/kg
LD50 (Acute Toxicity; iv): 34 mg/kg
zone of inhibition at 10 µg/disc (Streptococcus pyogenes [1]; strain B-Cruz): 15 mm
zone of inhibition at 10 µg/disc (Streptococcus pyogenes [1]; strain C): 13 mm
zone of inhibition at 10 µg/disc (Bacillus subtilis [2]): 31 mm
zone of inhibition at 10 µg/disc (Klebsiella pneumoniae [3]; strain Ad 17): 22 mm
zone of inhibition at 10 µg/disc (Klebsiella pneumoniae [3]; strain Ad 18): 23 mm
zone of inhibition at 10 µg/disc (Klebsiella pneumoniae [3]; strain Georgetown 3020): 13 mm
zone of inhibition at 10 µg/disc (Klebsiella pneumoniae [3]; strain Georgetown 3694): 14 mm
zone of inhibition at 10 µg/disc (Providence 164): 13 mm
zone of inhibition at 10 µg/disc (Staphylococcus aureus [4]; ATCC6538P, strain ATCC 6538P): 25 mm
zone of inhibition at 10 µg/disc (Staphylococcus aureus [4]; strain 59N): 28 mm
zone of inhibition at 10 µg/disc (Staphylococcus aureus [4]; strain Wood): 29 mm
zone of inhibition at 10 µg/disc (Staphylococcus aureus [4]; strain Ziegler): 26 mm
zone of inhibition at 10 µg/disc (Escherichia coli [5]; ATCC10536, strain ATCC 10536, 10 Mcg. discs): 28 mm
zone of inhibition at 10 µg/disc (Escherichia coli [5]): 15 mm
zone of inhibition at 10 µg/disc (Escherichia coli [5]; strain 589, 10 Mcg. discs): 24 mm
zone of inhibition at 10 µg/disc (Escherichia coli [5]; strain JR88, 10 Mcg. discs): 11 mm
zone of inhibition at 10 µg/disc (Escherichia coli [5]; strain JR90, 10 Mcg. discs): 0 mm
zone of inhibition at 10 µg/disc (Escherichia coli [5]; strain LA290/R55, 10 Mcg. discs): 13 mm
zone of inhibition at 10 µg/disc (Escherichia coli [5]; strain Swidinsky 4195, 10 Mcg. discs): 24 mm
zone of inhibition at 10 µg/disc (Pseudomonas aeruginosa [6]; strain Capetown 18): 14 mm
zone of inhibition at 10 µg/disc (Pseudomonas aeruginosa [6]; strain D-2): 24 mm
zone of inhibition at 10 µg/disc (Pseudomonas aeruginosa [6]; strain St. Michael 413): 26 mm
zone of inhibition at 10 µg/disc (Pseudomonas aeruginosa [6]; strain St. Michael 762): 25 mm
zone of inhibition at 10 µg/disc (Pseudomonas aeruginosa [6]; strain St. Michael 1262): 26 mm
zone of inhibition at 10 µg/disc (Pseudomonas aeruginosa [6]; strain St. Michael 1395): 26 mm
zone of inhibition at 10 µg/disc (Pseudomonas aeruginosa [6]; strain Stone 20): 27 mm
zone of inhibition at 10 µg/disc (Pseudomonas aeruginosa [6]; strain Stone 39): 25 mm
zone of inhibition at 10 µg/disc (Pseudomonas aeruginosa [6]; strain Stone 130): 14 mm
zone of inhibition at 10 µg/disc (Pseudomonas aeruginosa [6]; strain Stone 138): 10 mm
activity against strains containing adenylylating R factors (E. coli): resistant
activity against resistant Providence (Providence [7]): resistant
activity against resistant strains (Pseudomonas aeruginosa [8]): resistant
MIC (Salmonella typhimurium): 0.3 µg/mL (≈ 0.67 µM)
MIC (Proteus rettgeri): 0.8 µg/mL (≈ 1.79 µM)
MIC (Candida albicans): > 25 µg/mL
MIC (Streptococcus pyogenes [9]; pH 7.2, strain 27): 3 µg/mL (≈ 6.7 µM)
MIC (Streptococcus pyogenes [9]; pH 7.2, strain Alvarez): 3 µg/mL (≈ 6.7 µM)
MIC (Streptococcus pyogenes [9]; pH 7.2, strain C): 3 µg/mL (≈ 6.7 µM)
MIC (Streptococcus pyogenes [9]; pH 7.2, strain Cruz): 3 µg/mL (≈ 6.7 µM)
MIC (Streptococcus pyogenes [9]; pH 7.2, strain Karipeds): 0.8 µg/mL (≈ 1.79 µM)
MIC (Streptococcus pyogenes [9]; pH 7.2, strain Labay): 3 µg/mL (≈ 6.7 µM)
MIC (Bacillus subtilis [10]): 0.03 µg/mL (≈ 0.067 µM)
MIC (Trichophyton rubrum): > 25 µg/mL
MIC (Serratia): 0.8 µg/mL (≈ 1.79 µM)
MIC (Klebsiella pneumoniae [11]; pH 7.2, strain Ad 18): 0.08 µg/mL (≈ 0.179 µM)
MIC (Klebsiella pneumoniae [11]; pH 7.2, strain Genta. adenyl 121): 0.08 µg/mL (≈ 0.179 µM)
MIC (Klebsiella pneumoniae [11]; pH 7.2, strain Genta. adenyl 3020): 7.5 µg/mL (≈ 16.8 µM)
MIC (Klebsiella pneumoniae [11]; pH 7.2, strain Genta. adenyl 3694): 7.5 µg/mL (≈ 16.8 µM)
MIC (Klebsiella pneumoniae [11]; pH 7.2, strain Kana. phos. Ad 22): 0.3 µg/mL (≈ 0.67 µM)
MIC (Aspergillus niger): > 25 µg/mL
MIC (Staphylococcus aureus [12]; ATCC6538P, pH 7.2, strain ATCC 6538P): 0.08 µg/mL (≈ 0.179 µM)
MIC (Staphylococcus aureus [12]; pH 7.2, strain 59N): 0.03 µg/mL (≈ 0.067 µM)
MIC (Staphylococcus aureus [12]; pH 7.2, strain 1118): 3 µg/mL (≈ 6.7 µM)
MIC (Staphylococcus aureus [12]; pH 7.2, strain Grey): 3 µg/mL (≈ 6.7 µM)
MIC (Staphylococcus aureus [12]; pH 7.2, strain Wood): 0.03 µg/mL (≈ 0.067 µM)
MIC (Staphylococcus aureus [12]; pH 7.2, strain Ziegler): 0.08 µg/mL (≈ 0.179 µM)
MIC (Providence [13]): > 25 µg/mL
MIC (Escherichia coli [14]; ATCC10536, pH 7.2, strain ATCC 10536): 0.08 µg/mL (≈ 0.179 µM)
MIC (Escherichia coli [14]; pH 7.2, strain Baker 2): 0.3 µg/mL (≈ 0.67 µM)
MIC (Escherichia coli [14]; pH 7.2, strain Fl4-Bk): 0.3 µg/mL (≈ 0.67 µM)
MIC (Escherichia coli [14]; pH 7.2, strain Genta. adenyl LA290-R55): 17.5 µg/mL (≈ 39.1 µM)
MIC (Escherichia coli [14]; pH 7.2, strain Genta. adenyl W677/R55): 7.5 µg/mL (≈ 16.8 µM)
MIC (Escherichia coli [14]; pH 7.2, strain Kana. phosphor. 589): 0.8 µg/mL (≈ 1.79 µM)
MIC (Escherichia coli [14]; pH 7.2, strain Kana. phosphor. C-13): 0.3 µg/mL (≈ 0.67 µM)
MIC (Escherichia coli [14]; pH 7.2, strain Tobra. R 4195): 0.8 µg/mL (≈ 1.79 µM)
MIC (Pseudomonas aeruginosa [15]; pH 7.2): > 25 µg/mL
MIC (Pseudomonas aeruginosa [15]; pH 7.2, strain 762, Mueller-Hinton Broth pH 7.2, read-out: MIC): 0.3 µg/mL (≈ 0.67 µM)
MIC (Pseudomonas aeruginosa [15]; pH 7.2, strain 1262, Mueller-Hinton Broth pH 7.2, read-out: MIC): 0.8 µg/mL (≈ 1.79 µM)
MIC (Pseudomonas aeruginosa [15]; pH 7.2, strain 1395, Mueller-Hinton Broth pH 7.2, read-out: MIC): 0.08 µg/mL (≈ 0.179 µM)
MIC (Pseudomonas aeruginosa [15]; pH 7.2, strain D-2, Mueller-Hinton Broth pH 7.2, read-out: MIC): 0.08 µg/mL (≈ 0.179 µM)
MIC (Pseudomonas aeruginosa [15]; pH 7.2, strain Genta. acetyl Capetown 18, Mueller-Hinton Broth pH 7.2, read-out: MIC): 7.5 µg/mL (≈ 16.8 µM)
MIC (Pseudomonas aeruginosa [15]; pH 7.2, strain Genta. acetyl Stone 130, Mueller-Hinton Broth pH 7.2, read-out: MIC): 17.5 µg/mL (≈ 39.1 µM)
MIC (Pseudomonas aeruginosa [15]; pH 7.2, strain NRRL B3223, Mueller-Hinton Broth pH 7.2, read-out: MIC): 0.08 µg/mL (≈ 0.179 µM)
MIC (Pseudomonas aeruginosa [15]; pH 7.2, strain Stone 20, Mueller-Hinton Broth pH 7.2, read-out: MIC): 0.3 µg/mL (≈ 0.67 µM)
MIC (Pseudomonas aeruginosa [15]; pH 7.2, strain Stone 39, Mueller-Hinton Broth pH 7.2, read-out: MIC): 0.8 µg/mL (≈ 1.79 µM)
MIC (Pseudomonas aeruginosa [15]; pH 7.2, strain Stone 138, Mueller-Hinton Broth pH 7.2, read-out: MIC): 7.5 µg/mL (≈ 16.8 µM)
